From patent US5631394A, “Pharmaceutically active ceramide-related compounds” (The Liposome Company, Inc., priority 1995, dated 1997)
Like-named read-outs stand apart in the source and are kept apart here.

Assays:
Assay type in all cases: cell-based
U937 cells = test: sulforhodamine B cytotoxicity assay, 72 hour drug exposure, U937; details: Homo sapiens, U-937
Experimental: (§1) These studies were performed using a sulforrhodamine B assay (see Monks et al., J. Natl. Cancer Inst. (U.S.) 83:757 ([…])). Compounds were dissolved in ethanol. Results from these studies, presented in the following tables, are expressed as Gl50 values, that is, concentration of a drug (micromolar) required to inhibit growth of fifty percent of the cells.

U-937 cells [1] = test: % survival, trypan blue assay, with serum, U-937; details: bioactive lipid dose = 20 uM
P388/ADR cells = test: sulforhodamine B cytotoxicity assay, 72 hour drug exposure, P388/ADR; details: Mus musculus
Experimental: as §1

MCF7/ADR cells = test: sulforhodamine B cytotoxicity assay, 72 hour drug exposure, MCF7/ADR
LEWIS LUNG cells = test: sulforhodamine B cytotoxicity assay, 72 hour drug exposure, Lewis lung
P-388 cells [2] = test: % survival, trypan blue assay, with serum, P-388; details: bioactive lipid dose = 20 uM
RPMI 7666 cells = test: sulforhodamine B cytotoxicity assay, 72 hour drug exposure, RPMI 7666
Experimental: as §1

P388 cells = test: sulforhodamine B cytotoxicity assay, 72 hour drug exposure, P388; details: Mus musculus
Experimental: as §1

RPMI-7666 cells [3] = test: % survival, trypan blue assay, with serum, RPMI-7666; details: bioactive lipid dose = 20 uM
U-937 cells [4] = test: % survival, trypan blue exclusion assay, without serum, U-937; details: bioactive lipid dose = 20 uM, 2880 min
OVCAR 3 cells = test: sulforhodamine B cytotoxicity assay, 72 hour drug exposure, OVCAR 3; details: Homo sapiens, OVCAR-3, 72 h
HT 29 cells = test: sulforhodamine B cytotoxicity assay, 72 hour drug exposure, HT 29
CAKI 1 cells = test: sulforhodamine B cytotoxicity assay, 72 hour drug exposure, CAKI 1
SKMEL 28 cells = test: sulforhodamine B cytotoxicity assay, 72 hour drug exposure, SKMEL 28
C3H10T1/2 cells = test: sulforhodamine B cytotoxicity assay, 72 hour drug exposure, C3H10T1/2; details: Mus musculus, C3H 10T1/2
Experimental: as §1

P-388 cells [5] = test: % survival, trypan blue exclusion assay, without serum, P-388; details: bioactive lipid dose = 20 uM, 2880 min
A549 cells = test: sulforhodamine B cytotoxicity assay, 72 hour drug exposure, A549
RPMI-7666 cells [6] = test: % survival, trypan blue exclusion assay, without serum, RPMI-7666; details: bioactive lipid dose = 20 uM, 2880 min
MCF7 cells = test: sulforhodamine B cytotoxicity assay, 72 hour drug exposure, MCF7

CCCCCCCCCCCCC/C=C/[C@@H](O)[C@H](CO)NC(=O)CCCCC [C6-Ceramide, C6-ceramide, reference compound]
GI50 (U937 cells): 7 ± 1.7 µM
% Survival (by trypan blue assay) (U-937 cells [1]): 97%
GI50 (P388/ADR cells): 12.7 ± 1.7 µM
GI50 (MCF7/ADR cells): 36 ± 0.88 µM
GI50 (MCF7/ADR cells; Homo sapiens, NCI/ADR-RES, 72 h): 36 ± 0.88 µM
GI50 (MCF7/ADR cells; listed as Cer-C6): 26.1 ± 0.85 µM
GI50 (LEWIS LUNG cells; Lewis lung carcinoma, 72 h): 9.6 ± 4.4 µM
GI50 (LEWIS LUNG cells; listed as Cer-C6): 5.81 µM
% Survival (by trypan blue assay) (P-388 cells [2]): 84.5%
GI50 (RPMI 7666 cells): 8.5 ± 3.5 µM
GI50 (P388 cells): 6.24 ± 0.3 µM
% Survival (by trypan blue assay) (RPMI-7666 cells [3]): 89.2%
% Survival (by trypan blue exclusion assay) (U-937 cells [4]): 82.6%
GI50 (OVCAR 3 cells): 15.2 ± 1.77 µM
GI50 (HT 29 cells; Homo sapiens, HT-29, 72 h): 4 ± 0.2 µM
GI50 (HT 29 cells; listed as Cer-C6): 4.67 ± 0.19 µM
GI50 (CAKI 1 cells; Homo sapiens, CAKI-1, 72 h): 6.04 ± 0.23 µM
GI50 (CAKI 1 cells; listed as Cer-C6): 5.88 ± 0.1 µM
GI50 (SKMEL 28 cells; Homo sapiens, SK-MEL-28, 72 h): 13.3 ± 2.51 µM
GI50 (SKMEL 28 cells; listed as Cer-C6): 11.55 ± 0.07 µM
GI50 (C3H10T1/2 cells): 14 ± 2.5 µM
% Survival (by trypan blue exclusion assay) (P-388 cells [5]): 55.4%
GI50 (A549 cells; Homo sapiens, A549, 72 h): 12 ± 4.8 µM
GI50 (A549 cells; listed as Cer-C6): 8.08 ± 0.06 µM
% Survival (by trypan blue exclusion assay) (RPMI-7666 cells [6]): 79%
GI50 (MCF7 cells; Homo sapiens, MCF7, 72 h): 24.2 ± 8.5 µM
GI50 (MCF7 cells; listed as Cer-C6): 12.7 ± 0.14 µM
